This is an account of results in ChEMBL document CHEMBL1133343, “Synthesis and antifungal activity of a ferrocene-fluconazole analogue” (2000).

Assay type in all cases: functional
The subject of assay [1] is Candida parapsilosis. The experiment in a line: Compound was tested for antifungal activity against growth of two strains Candida parapsilosis. Particulars: Lodderomyces parapsilosis.
Assay [2] concerns Candida albicans. Briefly: Compound was tested for antifungal activity against growth of three strains of Candida albicans.
In assay [3] the test system is Pichia kudriavzevii. Briefly: Compound was tested for antifungal activity against growth of three strains Candida krusei.
Assay [4] has as its system Candida albicans. The experiment in a line: Compound was tested for antifungal activity against growth of two strains Candida glabrata.

The structures appear in SMILES notation.

For the compound `OC(Cn1cncn1)(Cn1cncn1)c1ccc(F)cc1F` [FLUCONAZOLE], the MIC80 in assay [1] was below 12 µg/mL; in assay [2], below 1.5 µg/mL; in assay [3], above 48 µg/mL; in assay [4], above 48 µg/mL.
